Experimental data published in ChEMBL document CHEMBL1138967, “Design, synthesis, and biological evaluation of novel tricyclic HIV-1 integrase inhibitors by modification of its pyridine ring” (Bioorg Med Chem Lett, 2006).

What was measured:
MT4 = assay: Cytotoxicity against MT4 cells; assay type: functional; conditions: Homo sapiens
[1] = tested on: Human immunodeficiency virus 1; assay: Antiviral activity against HIV1 3B in MT4 cells; assay type: functional, organism-based; conditions: Human immunodeficiency virus 1, 3B
[2] = target: Human immunodeficiency virus type 1 integrase (Human immunodeficiency virus 1, UniProt Q7ZJM1); assay: Inhibition of strand transfer activity in HIV1 integrase
Chain of Human immunodeficiency virus type 1 integrase (Q7ZJM1 whole entry): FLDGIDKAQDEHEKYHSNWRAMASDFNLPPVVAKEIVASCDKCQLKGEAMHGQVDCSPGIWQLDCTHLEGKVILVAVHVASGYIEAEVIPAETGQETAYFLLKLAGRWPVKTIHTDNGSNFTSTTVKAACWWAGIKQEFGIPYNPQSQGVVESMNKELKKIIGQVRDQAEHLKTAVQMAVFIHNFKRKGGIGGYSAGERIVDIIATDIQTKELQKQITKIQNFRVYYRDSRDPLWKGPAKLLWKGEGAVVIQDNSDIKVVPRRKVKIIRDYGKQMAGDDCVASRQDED

| SMILES | CC50 (MT4) | EC50 [1] | IC50 [2] | IC50 [1] |
| --- | --- | --- | --- | --- |
| COc1c2c(c(O)c3ncccc13)C(=O)N(Cc1ccc(F)cc1)C2 | 5100 nM |  |  |  |
| COc1c2c(c(O)c3nccnc13)C(=O)N(Cc1ccc(F)cc1)C2 | 87000 nM | 3550 nM | 210 nM |  |
| COc1c2c(c(O)c3ncc(F)cc13)C(=O)N(Cc1ccc(F)cc1)C2 | 33300 nM |  | 7.2 nM | 1540 nM |
| CN(C)S(=O)(=O)Oc1c2c(c(O)c3nccnc13)C(=O)N(Cc1ccc(F)cc1)C2 | 2700 nM | 540 nM | 33 nM |  |
| COc1c2c(c(O)c3ncn(Cc4ccccc4)c13)C(=O)N(Cc1ccc(F)cc1)C2 | 25000 nM |  | 24000 nM | > 10000 nM |
| CN(C)S(=O)(=O)Oc1c2c(c(O)c3ncccc13)C(=O)N(Cc1ccc(F)cc1)C2 | 1400 nM | 7 nM |  |  |
| COc1c2c(c(O)c3c1NCCN3)C(=O)N(Cc1ccc(F)cc1)C2 |  |  | 850 nM | > 10000 nM |
| COc1cnc2c(O)c3c(c(OC)c2c1)CN(Cc1ccc(F)cc1)C3=O | 2100 nM | 70 nM | 93 nM |  |
